Results taken from patent US8546421B1, “Oncogenic-RAS-signal dependent lethal compounds” (The Trustees of Columbia University in the City of New York, priority 2007, dated 2013).

Experiments:
HT29 = assay: NCI60 anti-cancer screening; settings: for GI 100%: HT29, Colon Cancer; for GI50 / CC50: Homo sapiens; for GI50: HT-29; for CC50: HT-29, read-out: LC 50%
[1] = tested on: PARP-1 cleavage in BJ-TERT/LT/ST/RAS^V12 cells; assay: Western blot of PARP-1 cleavage upon compound treatment; assay type: cell-based, human; settings: Western blot with anti-PARP-1 antibody
Experimental: 2×10^6 BJ-TERT/LT/ST/RAS^V12 cells were seeded in 10 cm dishes and treated with 1 μM staurosporine, 10 μg/mL erastin, 20 μg/mL Compound 3, and 1 μg/mL Compound 27 for 16 h. Both dying cells and live cells in each 10 cm dish were harvested and collected in the same 15 mL tubes by centrifuging cell suspension at 1,000 rpm for 5 min. Cell pellets were washed three times with PBS and cells were lysed in 200 μL of denaturing lysis buffer (50 mM HEPES KOH [pH 7.4], 40 mM NaCl, 2 mM EDTA, 1.5 mM Na3VO4, 50 mM NaF, 10 mM sodium pyrophosphate, 10 mM sodium β-glycerophosphate, 0.5% Triton X-100, and protease inhibitor tablet [Roche, cat.#11836170001]). Protein content was quantified using a Bio-Rad protein assay reagent (Bio-Rad, cat.#500-00006). Equal amounts of protein were resolved on SDS-polyacrylamide gels. The electrophoresed proteins were transblotted onto a PVDF membrane, blocked with 5% milk, and incubated with rabbit primary antibodies specific to: PARP (Santa Cruz, cat.#sc-7150), cleaved caspase-3 (Cell Signaling Technology, cat.#9661) overnight at 4° C. The membrane was then incubated in IRDye 800 goat anti-rabbit antibody (Li-cor Bioscience cat.#926-32211) at 1:3,000 dilutions for 45 min at room temperature. After washing off the unbound antibodies, membranes were scanned using the Odyssey™ Imaging System (Li-cor Bioscience).

VDAC3 in HT1080 cells = assay: Drug sensitivity after shRNA knockdown of VDAC3; assay type: cell-based, human; settings: shRNAs targeting VDAC3, alamar blue
Experimental: On day one, 3×10^5 Calu-1 cells or 2×10^5 HT1080 cells were seeded in 10-cm dishes; on day 2, frozen virus stock was thawed at 37° C., hexadimethrine bromide (polybrene) (Sigma, cat.#H9268) was added to the virus solution at a final concentration of 8 μg/mL and growth media from cell culture was replaced with the virus/polybrene mixture. The culture was returned to the tissue culture incubator for 2 hours, with rocking of the dishes every 30 min in order to prevent drying. After 2 h, 10 mL growth medium was added, the culture was incubated for 2 days, and cells stably expressing shRNA were selected by adding puromycin (Sigma, cat.#P9620) at a final concentration of 1.5 μg/mL.
On the day of experiment, assay plates were prepared by seeding 3,000 HT1080, HT1080-pLKO, HT1080-TfR1 KD, Calu-1, Calu-1-pLKO, or Calu-1-509 cells per well in 36 μL of growth media to black, clear bottom 384-well plates. Also, assay plates were prepared by seeding 1,500 shRNA infected HT1080 or Calu-1 cells per well. Cells in assay plates were treated with each lethal compound in a 2-fold dilution series by transferring 4 μL solution from a 10× lethal plate of Erastin, Compound 3, Compound 27, or Compound 36. […] Percent growth inhibition (% GI) was calculated using fluorescence intensity values.

UO-31 = assay: NCI60 anti-cancer screening; settings: for GI50 / CC50: Homo sapiens; for GI50 / GI 100%: UO-31; for CC50: UO-31, read-out: LC 50%; for GI 100%: Renal Cancer
U251 = assay: NCI60 anti-cancer screening; settings: for GI50 / CC50: Homo sapiens; for GI50: U-251; for CC50: U-251, read-out: LC 50%; for GI 100%: U251, CNS Cancer
RXF393 = assay: NCI60 anti-cancer screening; settings: for GI50 / CC50: Homo sapiens; for GI50: RXF 393; for CC50: RXF 393, read-out: LC 50%; for GI 100%: RXF393, Renal Cancer
SF-295 = assay: NCI60 anti-cancer screening; settings: for GI50 / CC50: Homo sapiens; for GI50 / GI 100%: SF-295; for CC50: SF-295, read-out: LC 50%; for GI 100%: CNS Cancer
EKVX = assay: NCI60 anti-cancer screening; settings: for GI50 / CC50: Homo sapiens; for CC50: read-out: LC 50%; for GI 100%: Non-small cell lung carcinoma
A549/ATCC = assay: NCI60 anti-cancer screening; settings: for GI 100%: A549/ATCC, Non-small cell lung carcinoma; for GI50 / CC50: Homo sapiens; for GI50: A549; for CC50: A549, read-out: LC 50%
HCT-15 = assay: NCI60 anti-cancer screening; settings: for GI 100% / GI50: HCT-15; for GI 100%: Colon Cancer; for GI50 / CC50: Homo sapiens; for CC50: HCT-15, read-out: LC 50%
OVCAR-5 = assay: NCI60 anti-cancer screening; settings: for GI50 / CC50: Homo sapiens; for GI50 / GI 100%: OVCAR-5; for CC50: OVCAR-5, read-out: LC 50%; for GI 100%: Ovarian Cancer
SN12C = assay: NCI60 anti-cancer screening; settings: for GI50 / CC50: Homo sapiens; for CC50: read-out: LC 50%; for GI 100%: Renal Cancer
HCC-2998 = assay: NCI60 anti-cancer screening; settings: for GI 100%: HCC-2998, Colon Cancer; for GI50 / CC50: Homo sapiens; for GI50: HCC 2998; for CC50: HCC 2998, read-out: LC 50%
SW-620 = assay: NCI60 anti-cancer screening; settings: for GI50 / CC50: Homo sapiens; for GI50 / GI 100%: SW-620; for CC50: SW-620, read-out: LC 50%; for GI 100%: Colon Cancer
MDA-MB-231/ATCC = assay: NCI60 anti-cancer screening; settings: for GI50 / CC50: Homo sapiens; for GI50: MDA-MB-231; for CC50: MDA-MB-231, read-out: LC 50%; for GI 100%: MDA-MB-231/ATCC, Breast Cancer
NCI-H322M = assay: NCI60 anti-cancer screening; settings: for GI50 / CC50: Homo sapiens; for CC50: read-out: LC 50%; for GI 100%: Non-small cell lung carcinoma
SK-OV-3 = assay: NCI60 anti-cancer screening; settings: for GI50 / CC50: Homo sapiens; for GI50 / GI 100%: SK-OV-3; for CC50: SK-OV-3, read-out: LC 50%; for GI 100%: Ovarian Cancer
OVCAR-8 = assay: NCI60 anti-cancer screening; settings: for GI50 / CC50: Homo sapiens; for GI50 / GI 100%: OVCAR-8; for CC50: OVCAR-8, read-out: LC 50%; for GI 100%: Ovarian Cancer

SMILES: COCCOC(=O)C1=C(C)NC2=C(C(=O)CC(c3ccc(Cl)cc3)C2)C1c1ccccc1F (stereo not shown) [Compound 3]
- GI 100% (HT29): >10 µM
- GI50 (HT29): 9.82 µM
- CC50 (HT29): > 10 µM
- PARP-1 cleavage / type of cell death [1]: activate a non-apoptotic pathway
- effect of VDAC3 knockdown on compound-induced cell death (VDAC3 in HT1080 cells): suppressed
- GI50 (UO-31): 6.82 µM
- CC50 (UO-31): > 10 µM
- GI 100% (UO-31): >10 µM

SMILES: COC(=O)c1ccc(C2c3[nH]c4ccccc4c3CC(C(=O)OC)N2C(=O)CCl)cc1 (stereo not shown) [Compound 27]
- GI50 (U251): 1.1 µM
- CC50 (U251): 4.79 µM
- GI 100% (U251): 2.3 µM
- GI 100% (HT29): 1.46 µM
- GI50 (HT29): 0.415 µM
- CC50 (HT29): 4.06 µM
- GI50 (RXF393): 1.3 µM
- CC50 (RXF393): 6.93 µM
- GI 100% (RXF393): 3 µM
- PARP-1 cleavage / type of cell death [1]: activate a non-apoptotic pathway
- GI50 (SF-295): 1.1 µM
- CC50 (SF-295): 8.06 µM
- GI 100% (SF-295): 2.97 µM
- GI50 (EKVX): 2.31 µM
- CC50 (EKVX): > 10 µM
- GI 100% (EKVX): 5.63 µM
- GI 100% (A549/ATCC): >10 µM
- GI50 (A549/ATCC): 2.51 µM
- CC50 (A549/ATCC): > 10 µM
- GI 100% (HCT-15): 2.83 µM
- GI50 (HCT-15): 1.45 µM
- CC50 (HCT-15): 5.54 µM
- GI50 (OVCAR-5): 2.24 µM
- CC50 (OVCAR-5): > 10 µM
- GI 100% (OVCAR-5): 5.71 µM
- GI50 (SN12C): 1.25 µM
- CC50 (SN12C): 6.12 µM
- GI 100% (SN12C): 2.77 µM
- GI 100% (HCC-2998): 5.1 µM
- GI50 (HCC-2998): 2.01 µM
- CC50 (HCC-2998): > 10 µM
- GI50 (SW-620): 0.681 µM
- CC50 (SW-620): 5.25 µM
- GI 100% (SW-620): 2.09 µM
- effect of VDAC3 knockdown on compound-induced cell death (VDAC3 in HT1080 cells): not affected
- GI50 (UO-31): 0.02 µM
- CC50 (UO-31): 0.0743 µM
- GI 100% (UO-31): 0.0385 µM
- GI50 (MDA-MB-231/ATCC): 1.2 µM
- CC50 (MDA-MB-231/ATCC): 9.18 µM
- GI 100% (MDA-MB-231/ATCC): 3.32 µM
- GI50 (NCI-H322M): 3.6 µM
- CC50 (NCI-H322M): > 10 µM
- GI 100% (NCI-H322M): >10 µM
- GI50 (SK-OV-3): 1.68 µM
- CC50 (SK-OV-3): 6.67 µM
- GI 100% (SK-OV-3): 3.34 µM
- GI50 (OVCAR-8): 2.32 µM
- CC50 (OVCAR-8): > 10 µM
- GI 100% (OVCAR-8): >10 µM

SMILES: C=C1CCC2C(C)(C)CCC[C@]2(C)C1CC/C(C)=C\CC/C(C)=N/NC(N)=S (stereo partly shown) [Compound 36]
- GI50 (U251): 0.47 µM
- CC50 (U251): 4.12 µM
- GI 100% (U251): 1.7 µM
- GI 100% (HT29): 1.37 µM
- GI50 (HT29): 0.322 µM
- CC50 (HT29): 4.1 µM
- GI50 (RXF393): 0.181 µM
- CC50 (RXF393): 2.49 µM
- GI 100% (RXF393): 0.485 µM
- GI50 (SF-295): 1.19 µM
- CC50 (SF-295): 5.33 µM
- GI 100% (SF-295): 2.52 µM
- GI50 (EKVX): 1.24 µM
- CC50 (EKVX): 5.09 µM
- GI 100% (EKVX): 2.51 µM
- GI 100% (A549/ATCC): 2.4 µM
- GI50 (A549/ATCC): 1.11 µM
- CC50 (A549/ATCC): 5.15 µM
- GI 100% (HCT-15): 1.53 µM
- GI50 (HCT-15): 0.305 µM
- CC50 (HCT-15): 3.93 µM
- GI50 (OVCAR-5): 0.492 µM
- CC50 (OVCAR-5): 4.33 µM
- GI 100% (OVCAR-5): 1.62 µM
- GI50 (SN12C): 0.351 µM
- CC50 (SN12C): 3.67 µM
- GI 100% (SN12C): 1.35 µM
- GI 100% (HCC-2998): 0.733 µM
- GI50 (HCC-2998): 0.24 µM
- CC50 (HCC-2998): 2.68 µM
- GI50 (SW-620): 0.184 µM
- CC50 (SW-620): 2.54 µM
- GI 100% (SW-620): 0.569 µM
- GI50 (UO-31): 0.125 µM
- CC50 (UO-31): 1.47 µM
- GI 100% (UO-31): 0.385 µM
- GI50 (MDA-MB-231/ATCC): 0.341 µM
- CC50 (MDA-MB-231/ATCC): 3.27 µM
- GI 100% (MDA-MB-231/ATCC): 1.36 µM
- GI50 (NCI-H322M): 0.606 µM
- CC50 (NCI-H322M): 4.93 µM
- GI 100% (NCI-H322M): 1.99 µM
- GI50 (SK-OV-3): 1.26 µM
- CC50 (SK-OV-3): 5.2 µM
- GI 100% (SK-OV-3): 2.56 µM
- GI50 (OVCAR-8): 1.16 µM
- CC50 (OVCAR-8): 7.48 µM
- GI 100% (OVCAR-8): 2.94 µM

SMILES: CCc1c(O)c2c(c(O)c1O[C@H]1O[C@@H](COC(C)=O)[C@H](OC(C)=O)[C@@H](CC(C)=O)[C@@H]1OC(C)=O)C(=O)C(O[C@@H]1O[C@H](COC(C)=O)[C@@H](OC(C)=O)[C@H](OC(C)=O)[C@H]1OC(C)=O)=C(O[C@@H]1O[C@H](COC(C)=O)[C@@H](OC(C)=O)[C@H](OC(C)=O)[C@H]1OC(C)=O)C2=O [Compound 6]
- GI 100% (HT29): >10 µM
- GI50 (HT29): 3.32 µM
- CC50 (HT29): > 10 µM
- GI50 (RXF393): 0.652 µM
- CC50 (RXF393): 6.6 µM
- GI 100% (RXF393): 2.41 µM
- GI50 (SN12C): 8.1 µM
- CC50 (SN12C): > 10 µM
- GI 100% (SN12C): >10 µM
- GI50 (SW-620): 0.271 µM
- CC50 (SW-620): 3.9 µM
- GI 100% (SW-620): 1.03 µM
- GI50 (MDA-MB-231/ATCC): 1.75 µM
- CC50 (MDA-MB-231/ATCC): 9.52 µM
- GI 100% (MDA-MB-231/ATCC): 4.09 µM
- GI50 (OVCAR-8): 4.22 µM
- CC50 (OVCAR-8): > 10 µM
- GI 100% (OVCAR-8): >10 µM
